Measurements taken from ChEMBL document CHEMBL5113492, “Design, synthesis, and biological evalution of bifunctional inhibitors against Hsp90-HDAC6 interplay” (Eur J Med Chem, 2022).
Active and inactive are the calls of the source. The calls are words filed in the database; no cut-off is given here.

Key:
[1] = molecular target: T1, Heat shock protein HSP90 (Homo sapiens) (UniProt P07900+P08238); experiment: Inhibition of HSP90 in human NCI-H1975 cells assessed as upregulation of HSP70 expression at 0.05 to 2 uM incubated for 24 hrs by western blot analysis; assay type: cell-based; conditions: dose 0.05-2 µM, DDE = dose-dependent effect
[2] = molecular target: T2, Protein deacetylase HDAC6 (Homo sapiens) (UniProt Q9UBN7); experiment: Inhibition of HDAC6 in human NCI-H1975 cells assessed as increase in acetylation of alpha tubulin at 2 uM incubated for 24 hrs by western blot analysis; assay type: cell-based
T2 sequence (whole entry): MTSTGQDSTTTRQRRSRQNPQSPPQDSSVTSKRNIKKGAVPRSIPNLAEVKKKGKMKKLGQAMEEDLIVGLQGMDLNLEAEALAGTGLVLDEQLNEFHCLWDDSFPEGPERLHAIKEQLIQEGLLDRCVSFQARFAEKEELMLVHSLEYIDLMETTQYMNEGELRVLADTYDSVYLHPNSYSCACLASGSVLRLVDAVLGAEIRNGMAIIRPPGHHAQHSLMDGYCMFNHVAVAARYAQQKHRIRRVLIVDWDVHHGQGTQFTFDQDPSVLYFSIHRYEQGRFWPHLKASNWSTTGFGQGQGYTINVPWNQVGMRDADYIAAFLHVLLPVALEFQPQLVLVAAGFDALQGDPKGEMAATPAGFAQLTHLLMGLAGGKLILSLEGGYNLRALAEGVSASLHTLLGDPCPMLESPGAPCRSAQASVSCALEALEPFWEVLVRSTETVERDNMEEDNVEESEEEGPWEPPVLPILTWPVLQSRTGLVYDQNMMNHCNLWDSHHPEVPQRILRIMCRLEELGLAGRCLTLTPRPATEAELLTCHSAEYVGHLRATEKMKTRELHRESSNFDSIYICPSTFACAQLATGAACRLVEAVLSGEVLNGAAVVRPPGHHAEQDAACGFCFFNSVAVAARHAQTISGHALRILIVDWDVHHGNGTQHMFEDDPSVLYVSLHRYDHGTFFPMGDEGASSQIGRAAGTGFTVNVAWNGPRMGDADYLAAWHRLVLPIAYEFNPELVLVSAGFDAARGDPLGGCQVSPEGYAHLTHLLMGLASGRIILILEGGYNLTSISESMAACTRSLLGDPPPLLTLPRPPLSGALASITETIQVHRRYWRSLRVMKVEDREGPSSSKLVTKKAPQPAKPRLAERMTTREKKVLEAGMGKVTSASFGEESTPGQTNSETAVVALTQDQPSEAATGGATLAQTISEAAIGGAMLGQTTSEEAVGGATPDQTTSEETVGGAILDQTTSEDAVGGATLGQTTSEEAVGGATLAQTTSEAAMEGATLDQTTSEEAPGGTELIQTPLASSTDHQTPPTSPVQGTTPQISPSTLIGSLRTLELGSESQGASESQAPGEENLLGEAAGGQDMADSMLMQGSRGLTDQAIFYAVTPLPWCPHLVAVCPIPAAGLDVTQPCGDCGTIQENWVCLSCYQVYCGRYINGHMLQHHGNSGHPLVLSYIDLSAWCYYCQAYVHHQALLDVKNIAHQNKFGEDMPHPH

[3] = molecular target: T2, Protein deacetylase HDAC6 (Homo sapiens); experiment: Inhibition of HDAC6 in human NCI-H1975 cells assessed as microtubule polymerization at 1 uM incubated for 24 hrs by DAPI staining based immunofluorescence microscopy; assay type: cell-based
[4] = Toxicity in NSG mouse xenografted with human NCI-H1975 cells assessed as histological abnormalities in ocular region at 25 mg/kg,ip measured after 6 weeks by H and E staining based assay; assay type: organism-based; conditions: in vivo, 1008 h
[5] = molecular target: T1, Heat shock protein HSP90 (Homo sapiens); experiment: Inhibition of HSP90 in human NCI-H1975 cells assessed as downregulation of Met expression at 2 uM incubated for 24 hrs by western blot analysis; assay type: cell-based
NCI-H1975 [6] = experiment: Antitumor activity against NSG mouse xenografted with human NCI-H1975 cells assessed as reduction on tumor growth at 25 mg/kg,ip measured after 6 weeks; assay type: functional, organism-based
Mus musculus = experiment: In vivo inhibition of HSP90 in human NCI-H1975 cells xenografted with NSG mouse assessed as downregulation of EGFR expression at 50 mg/kg,ip measured after 6 weeks by immunohistochemistry analysis; assay type: functional, organism-based
NCI-H1975 [7] = experiment: Antiproliferative activity against human NCI-H1975 cells assessed as growth inhibition incubated upto 72 hrs by CellTiter96 Aqueous One Solution Cell Proliferation assay; assay type: functional
[8] = molecular target: T2, Protein deacetylase HDAC6 (Homo sapiens); experiment: Inhibition of HDAC6 in human NCI-H1975 cells assessed as downregulation of HDAC6 expression at 0.05 to 2 uM incubated for 24 hrs by western blot analysis; assay type: cell-based; conditions: dose 0.05-2 µM, DDE = dose-dependent effect
[9] = molecular target: T1, Heat shock protein HSP90 (Homo sapiens); experiment: Inhibition of HSP90 in human NCI-H1975 cells assessed as downregulation of Akt expression at 2 uM incubated for 24 hrs by western blot analysis; assay type: cell-based
Histone deacetylase 7 = molecular target: T3, Histone deacetylase 7 (Homo sapiens, UniProt Q8WUI4); experiment: Inhibition of HDAC7 (unknown origin) using fluorogenic substrate incubated for 30 mins by fluorescence plate reader
T3 sequence (Q8WUI4 whole entry): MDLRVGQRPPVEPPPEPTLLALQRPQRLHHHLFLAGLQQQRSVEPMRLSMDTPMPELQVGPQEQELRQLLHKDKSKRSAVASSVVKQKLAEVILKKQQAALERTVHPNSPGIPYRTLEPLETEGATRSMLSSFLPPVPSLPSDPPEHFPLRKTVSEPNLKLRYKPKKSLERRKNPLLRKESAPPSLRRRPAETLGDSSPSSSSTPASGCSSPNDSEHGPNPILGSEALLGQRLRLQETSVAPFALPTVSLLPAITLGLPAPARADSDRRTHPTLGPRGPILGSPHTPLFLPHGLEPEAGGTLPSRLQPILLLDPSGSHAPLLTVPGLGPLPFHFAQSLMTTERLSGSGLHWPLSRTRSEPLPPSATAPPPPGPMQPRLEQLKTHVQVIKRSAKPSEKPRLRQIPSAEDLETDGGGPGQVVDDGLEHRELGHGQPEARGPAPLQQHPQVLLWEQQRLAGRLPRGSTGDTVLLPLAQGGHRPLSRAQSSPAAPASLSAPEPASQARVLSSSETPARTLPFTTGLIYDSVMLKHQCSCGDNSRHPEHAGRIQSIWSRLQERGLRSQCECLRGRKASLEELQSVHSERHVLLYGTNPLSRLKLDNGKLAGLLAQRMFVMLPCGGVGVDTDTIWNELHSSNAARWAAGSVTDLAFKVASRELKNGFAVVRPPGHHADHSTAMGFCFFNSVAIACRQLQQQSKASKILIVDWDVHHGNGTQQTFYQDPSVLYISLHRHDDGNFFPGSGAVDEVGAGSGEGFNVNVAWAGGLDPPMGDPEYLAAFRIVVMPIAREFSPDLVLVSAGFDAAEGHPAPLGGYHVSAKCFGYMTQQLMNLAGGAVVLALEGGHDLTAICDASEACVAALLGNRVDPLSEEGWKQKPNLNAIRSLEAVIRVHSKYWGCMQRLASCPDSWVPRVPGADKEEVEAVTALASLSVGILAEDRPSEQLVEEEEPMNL

inhibition [1]: Dde
inhibition [2]: Active
inhibition [3]: Active
inhibition [5]: Active
GI50 (NCI-H1975 [7]): 1700 nM
inhibition [8]: Dde
inhibition [9]: Active
IC50 (Histone deacetylase 7): 1690 nM
Structure (SMILES): CC(C)c1cc(C(=O)N(C)Cc2ccc(C(=O)NO)cc2)c(O)cc1O
Activity [4]: Non-Toxic
Activity (NCI-H1975 [6]): Active
inhibition (Mus musculus): Active
